Measurements as given in BindingDB's records for doi:10.1016/j.bmc.2011.05.064 (Glaxosmithkline, 2011).

Target: Beta-1 adrenergic receptor (Homo sapiens, UniProt P08588)
Test: Agonist activity at human adrenergic beta1 receptor expressed in CHO cells assessed as cAMP accumulation

Chain of Beta-1 adrenergic receptor (P08588 whole entry): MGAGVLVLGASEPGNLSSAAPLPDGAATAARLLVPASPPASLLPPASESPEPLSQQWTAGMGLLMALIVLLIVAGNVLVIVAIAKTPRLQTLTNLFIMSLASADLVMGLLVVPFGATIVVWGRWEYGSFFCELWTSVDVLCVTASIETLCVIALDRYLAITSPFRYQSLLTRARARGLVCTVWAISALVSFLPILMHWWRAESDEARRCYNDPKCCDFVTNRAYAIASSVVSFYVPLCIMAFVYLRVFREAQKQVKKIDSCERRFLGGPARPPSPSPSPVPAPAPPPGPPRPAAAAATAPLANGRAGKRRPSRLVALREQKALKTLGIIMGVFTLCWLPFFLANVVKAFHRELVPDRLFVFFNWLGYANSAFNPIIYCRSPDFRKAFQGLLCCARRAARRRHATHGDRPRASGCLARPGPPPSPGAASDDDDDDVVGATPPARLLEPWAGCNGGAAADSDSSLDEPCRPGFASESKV

EC50: 0.079 µM
SMILES: O=c1[nH]cc(O)n1-c1ccc(CCCCOCCCCCCNC[C@H](O)c2ccc(O)c(CO)c2)cc1
